{"source": "patent US20140056951A1", "about": "“METHODS AND COMPOSITIONS FOR TREATING BIOFILMS” (PRESIDENT AND FELLOWS OF HARVARD COLLEGE, priority 2011, published 2014)", "key": {"[1]": {"tested_on": "B. subtilis strain NCBI3610", "assay": "Biofilm (pellicle) inhibition assay, B. subtilis in liquid biofilm-inducing medium", "type": "cell-based, Bacillus subtilis", "settings": "for concentration above which inhibition of biofilm formation is observed: B. subtilis pellicle formation; for inhibition of pellicle formation at 50 μM: cells diluted 1:1000 in biofilm media, final concentration 50 μM; for minimal effective concentration: Bacillus subtilis, NCBI3610, read-out: MBIC- Minimal Biofilm Inhibitory Concentration; for biofilm-inhibitory activity against B. subtilis: structure-activity", "description": "Bacillus subtilis strains PY79, 3610 and their derivatives were grown in Luria-Bertani (LB) medium at 37° C. or MSgg medium (1) at 23° C. Solid media contained 1.5% Bacto agar. When appropriate, antibiotics were added at the following concentrations for growth of B. subtilis: 10 μg per ml of tetracycline, and 5 μg per ml of erythromycin, 500 μg per ml of spectinomycin.\nB. subtilis strain NCBI3610 was grown at 22° C. in 12-well plates in liquid biofilm-inducing medium for 3 or 8 days. Conditioned medium (500 ml) from an 8-day-old culture was concentrated on the C-18 column and eluted step-wise with methanol. […]\nPellicle formation of strain NCBI 3610 was tested in the presence of the indicated concentrations of norspermidine (FIG. 1D) or spermidine (FIG. 1E).\nTo identify features of norspermidine important for its biofilm disassembly activity, we tested a library of polyamines in our biofilm inhibition assay (FIGS. 9A, 9B, 10 and Table 2).\nThe effect of polyamines on pellicle formation by B. subtilis was examined. B. subtilis wild-type cells were grown to a mid-logarithmic phase and diluted 1:1000 in biofilm media applied with each polyamine to the final concentration of 50 μM.\nThe effect of cyclic polyamines on biofilm formation by B. subtilis was examined. B. subtilis wild-type cells were grown to a mid-logarithmic phase and diluted 1:1000 in biofilm media (18A) or in a medium applied with cyclic compound 1,5,9-Triazacyclododecane to the final concentration of 50 μM (18B)."}, "[2]": {"tested_on": "exopolysaccharide of E. coli cells", "assay": "Fluorescence microscopy of exopolysaccharide staining, E. coli", "type": "cell-based, Escherichia coli", "excerpt": "In testing E. coli, the biofilm-proficient strain MC4100 was selected because a major component of exopolysacchride is colanic acid (Danese et al., 2000; Price and Raivio, 2009)."}, "[3]": {"tested_on": "B. subtilis wild-type cells", "assay": "Biofilm formation on solid biofilm medium, B. subtilis", "type": "cell-based, Bacillus subtilis", "settings": "1 μl of cells mixed with 1 μl (1 mM) polyamine", "description": "B. subtilis wild-type cells were grown to a mid-logarithmic phase and 1 μl of cells was mixed with 1 μl (1 mM) of each polyamine. The mixture was plated on solid biofilm medium.\nB. subtilis wild-type cells were grown to a mid-logarithmic phase and 1 μl of cells was either mixed with PBS (18C) or mixed with 1 μl (1 mM) of each polyamine (18D). The mixture was plated on solid biofilm medium. “3*” refers to 1,5,9-Triazacyclododecane."}, "[4]": {"tested_on": "exopolysaccharide and TasA of B. subtilis NCBI 3610", "assay": "Fluorescence microscopy of matrix components (concanavalin A-Texas Red, TasA-mCherry), B. subtilis", "type": "cell-based, Bacillus subtilis", "settings": "norspermidine 25 μM, spermidine 1 mM", "excerpt": "The cells were washed in PBS and stained for exopolysaccharide with a conjugate of concanavalin A with Texas-Red.\n[…] Cells were washed in PBS, and visualized by fluorescence microscopy.\nTo investigate further, exopolysaccharide was visualized by fluorescence microscopy using a conjugate of the carbohydrate-binding protein concanavalin A with Texas Red (FIG. 5) (McSwain et al., 2005). As evidence of specificity, the conjugate decorated wild-type cells but not cells from a mutant (Aeps) blocked in exopolysaccharide production (FIG. 6A). Indeed, at an exposure at which concanavalin A staining with the wild type strain gave an extremely bright fluorescent signal, little or no signal could be detected for the Aeps mutant, except at long exposures and enhanced brightness (FIG. 6A). Next, we investigated the effects of norspermidine and spermidine. […] Therefore, the difference in the staining was evidently due to differential levels of cell-associated exopolysaccharide. […] Thus, while not being bound to any theory, it is believed that norspermidine disrupts the matrix and by targeting exopolysaccharide."}, "[5]": {"tested_on": "exopolysaccharide of S. aureus cells", "assay": "Fluorescence microscopy of exopolysaccharide staining, S. aureus", "type": "cell-based, Staphylococcus aureus"}, "[6]": {"settings": "B. subtilis biofilm inhibition assay, library of polyamines"}}, "data": [{"compound": "1,3-diaminopropane [Molecule 6]", "values": [{"measurement": "MBIC- Minimal Biofilm Inhibitory Concentration", "setting": "[1]; [6]", "result": "2500 to 5000", "unit": "µM"}, {"measurement": "concentration above which inhibition of biofilm formation is observed", "setting": "[1]", "result": "> 5", "unit": "mM"}]}, {"compound": "NCCCCNCCCN", "note": "[Molecule 3, 1,8-diamino-4-azaoctane, reference compound]", "values": [{"measurement": "staining of exopolysaccharide, E. coli cells", "setting": "[2]", "result": "not"}, {"measurement": "inhibition of biofilm formation on solid biofilm medium", "setting": "[3]", "result": "do not"}, {"measurement": "concentration above which inhibition of biofilm formation is observed", "setting": "[1]; listed as spermidine", "result": "> 2", "unit": "mM"}, {"measurement": "inhibition of pellicle formation at 50 μM", "setting": "[1]", "result": "do not"}, {"measurement": "pattern of concanavalin A-Texas Red staining of exopolysaccharide", "setting": "[4]", "result": "No such effect"}, {"measurement": "staining of exopolysaccharide, S. aureus cells", "setting": "[5]", "result": "not"}]}, {"compound": "NCCCCNCCCN", "note": "[Molecule 3, spermidine]", "values": [{"measurement": "minimal effective concentration", "setting": "[1]; [6]", "result": 5000, "unit": "µM"}]}, {"compound": "NCCCNCCCCNCCCN", "note": "[Molecule 4, 1,12-diamino-4,9-diazaoctane, reference compound]", "values": [{"measurement": "minimal effective concentration", "setting": "[1]; [6]", "result": 2500, "unit": "µM"}]}, {"compound": "NCCCCN", "note": "[Molecule 5, 1,4-diaminobutane, reference compound]", "values": [{"measurement": "minimal effective concentration", "setting": "[1]; [6]", "result": "2000 to 3000", "unit": "µM"}]}, {"compound": "CN(C)CCCN(C)CCCN(C)C", "note": "[Molecule 7, N^1-(3-(dimethylamino)propyl)-N^1,N^3,N^3-trimethylpropane-1,3-diamine]", "values": [{"measurement": "minimal effective concentration", "setting": "[1]; [6]", "result": "> 5000", "unit": "µM"}]}, {"compound": "CN(C)CCCNCCCN(C)C", "note": "[Molecule 8, N^1-(3-(dimethylamino)propyl)-N^3, N^3-dimethylpropane-1,3-diamine]", "values": [{"measurement": "minimal effective concentration", "setting": "[1]; [6]", "result": "> 5000", "unit": "µM"}]}, {"compound": "CN(CCCN)CCCN", "note": "[Molecule 9, (3-aminopropyl)-N^1-methylpropane-1,3-diamine]", "values": [{"measurement": "minimal effective concentration", "setting": "[1]; [6]", "result": "> 5000", "unit": "µM"}]}, {"compound": "NCCCOCCCN", "note": "[Molecule 10, 3,3′-oxybis(propan-1-amine)]", "values": [{"measurement": "minimal effective concentration", "setting": "[1]; [6]", "result": 5000, "unit": "µM"}]}, {"compound": "CCOC(=O)CCC(=O)CCC(=O)OCC", "note": "[Molecule 11, Diethyl 4-oxoheptanedioate]", "values": [{"measurement": "minimal effective concentration", "setting": "[1]; [6]", "result": "> 5000", "unit": "µM"}]}, {"compound": "c1cc2ccc1CNCCCNCCCNCc1ccc(cc1)CNCCCNCCCNC2", "note": "[Molecule 12, 3,7,11,18,22,26-Hexaazatricyclo[26.2.2.213,16]tetratriaconta-13,15,28,30,31,33-hexaene]", "values": [{"measurement": "minimal effective concentration", "setting": "[1]; [6]", "result": 500, "unit": "µM"}, {"measurement": "biofilm-inhibitory activity against B. subtilis", "setting": "[1]; library of polyamines", "result": "active"}]}, {"compound": "CCCCCCCCCCCCNCCCNCCCNCCCCCCCCCCCC", "note": "[Molecule 13, N^1-dodecyl-N^3-(3-(dodecylamino)propyl)propane-1,3-diamine]", "values": [{"measurement": "minimal effective concentration", "setting": "[1]; [6]", "result": 100, "unit": "µM"}, {"measurement": "biofilm-inhibitory activity against B. subtilis", "setting": "[1]; library of polyamines", "result": "active"}]}, {"compound": "Cc1c(Cc2[nH]c(C(=O)OC(C)(C)C)c(C)c2C)[nH]c(Cc2[nH]c(C(=O)OC(C)(C)C)c(C)c2C)c1C", "note": "[Molecule 14, di-tert-butyl 5,5′-((3,4-dimethyl-1H-pyrrole-2,5-diyl)bis(methylene))bis(3,4-dimethyl-1H-pyrrole-2-carboxylate)]", "values": [{"measurement": "minimal effective concentration", "setting": "[1]; [6]", "result": "500 to 700", "unit": "µM"}, {"measurement": "biofilm-inhibitory activity against B. subtilis", "setting": "[1]; library of polyamines", "result": "active"}]}, {"compound": "NNC(=O)Cc1ccc(CC(=O)NN)[nH]1", "note": "[Molecule 15, 2,2′-(1H-pyrrole-2,5-diyl)di(acetohydrazide)]", "values": [{"measurement": "minimal effective concentration", "setting": "[1]; [6]", "result": "> 5000", "unit": "µM"}]}, {"compound": "CN(C)N(CCC(N)=O)CCC(N)=O", "note": "[Molecule 16, 3,3′-(2,2-dimethylhydrazine-1,1-diyl)dipropanamide]", "values": [{"measurement": "minimal effective concentration", "setting": "[1]; [6]", "result": "> 5000", "unit": "µM"}]}, {"compound": "O=C(NCCCNCCCNC(=O)C(O)C(O)C(O)C(O)CO)C(O)C(O)C(O)C(O)CO", "note": "(centres unmarked) [Molecule 17, N,N′-(azanediylbis(propane-3,1-diyl))bis(2,3,4,5,6-pentahydroxyhexanamide)]", "values": [{"measurement": "minimal effective concentration", "setting": "[1]; [6]", "result": "> 5000", "unit": "µM"}]}, {"compound": "NCCCCCN", "note": "[Molecule 19, pentane-1,5-diamine, reference compound]", "values": [{"measurement": "minimal effective concentration", "setting": "[1]; [6]", "result": 3000, "unit": "µM"}]}, {"compound": "OCCCNCCCO", "note": "[Molecule 20, 3,3′-azanediylbis(propan-1-ol)]", "values": [{"measurement": "minimal effective concentration", "setting": "[1]; [6]", "result": "> 5000", "unit": "µM"}]}, {"compound": "NCCCN(CCCN)CCCN", "note": "[Molecule 21, N^1,N^1-bis(3-aminopropyl)propane-1,3-diamine]", "values": [{"measurement": "minimal effective concentration", "setting": "[1]; [6]", "result": 200, "unit": "µM"}, {"measurement": "biofilm-inhibitory activity against B. subtilis", "setting": "[1]; library of polyamines", "result": "did not block activity"}]}, {"compound": "C1CNCCCNCCCNC1", "note": "[c, 1,5,9-triazacyclododecane]", "values": [{"measurement": "inhibition of biofilm formation on solid biofilm medium", "setting": "[3]", "result": "inhibits biofilm formation"}, {"measurement": "inhibition of pellicle formation at 50 μM", "setting": "[1]", "result": "inhibits biofilm formation"}]}, {"compound": "C1COCCN1", "note": "[morpholine, reference compound]", "values": [{"measurement": "inhibition of pellicle formation at 100 μM", "setting": "[1]; NCBI3610 in fresh medium, 100 μM (FIG. 1B)", "result": "inactive"}]}]}
